# In patent US20260347280A1, “DEUTERATED HINOKITIOL DERIVATIVES” (priority 2022, published 2026):
# “Also recorded” adds a separate entry of the source.
# Assays:
# [1] = compared with hinokitiol; cited from earlier work
# [2] = Liposome efflux assay (Fe3+ liposomal efflux, cell-free iron efflux); format: biochemical; settings: for iron mobilization capacity / cell-free iron transport, effect of deuteration: deuterated vs protio compound, cell-free iron efflux, 37 °C, 40 min; for iron transport capability at higher concentrations: Fe3+ liposomal efflux, 50-150 μM, compared with hinokitiol or Tri-Methyl
# Protocol: After evaporation under a stream of nitrogen, films were placed under hi-vacuum for 18 hours to ensure quantitative solvent removal. […] LUVs were subjected to size exclusion chromatography, using a ~20 cm column of Sephadex® G-50 Medium resin that was hydrated in liposome outside buffer (600 mM sodium ascorbate, 50 mM MES/TRIS pH 7.0).
# Determination of total phosphorous was performed utilizing the Bartlett Assay. Briefly, the LUV suspension was diluted 10-fold in liposome outside buffer, then 10 μL of this solution was placed in three 7 mL vials along with 10 μL of liposome outside buffer for background. […] The samples were then allowed to fully cool and diluted using 3.9 mL of Milli-Q water. […] of 2.5% w/v ammonium molybdate was then added, then the samples were vortexed, then […] of 10% w/v ascorbic acid was added. The samples were then re-vortexed, capped, and heated at 100 °C for seven minutes. The samples were allowed to fully cool then read at A820 and compared to a phosphorous standard curve to determine the total quantity of phosphorous.
# 16 mL of liposome suspension was created with the following components: […] of ferrozine solution (100× stock, 50 mM in liposome outside buffer), LUV suspension (to a final concentration of 1 mM phosphorous), and liposome outside buffer up to 16 mL. […] of liposome suspension was then added to a 96 well plate (NUM) using a multichannel pipettor. The plate was then placed in a plate reader and equilibrated at 37 °C for 5 minutes, then read for a baseline measurement. Following this equilibration, compound was added at the designated concentrations (40× stock in DMSO) using a multichannel pipettor, and the plate was then incubated at 37 °C for 40 min. Reads were taken every minute at A562 and the plate mixed at 220 rpm. Total iron efflux was determined via […]-iron complex signal. These experiments were performed in triplicate, with a minimum of two biological replicates.
# [3] = Dynamic light scattering (aggregation); format: physicochemical; settings: for aggregation tendency: aqueous media, in words
# Protocol: Dynamic light scattering was performed on a Malvern Zetasizer Nano using disposable cuvettes. […] Compound at the specified concentration (from 1000× in DMSO), as well as equimolar FeCl3 (1000× in 0.1 M HCl) were added to this buffer. After addition, these compounds were vortexed for 30 sec, sonicated for one min, then further vortexed for 30 sec before a five-minute equilibration in the Zetasizer at 37 °C. All standard parameters were used, with each graph representing a minimum of thirty 10 second measurements. For count rate analysis, the raw count rate was utilized, accounting for any differences in attenuator position between samples.
# [4] = tested on: ferroportin 1 (FPN1−) deficient cells and animals; settings: cited from earlier work
# [5] = tested on: divalent metal transporter 1 (DMT1−) deficient cells and animals; settings: cited from earlier work
# [6] = tested on: mitoferrin 1 (MFRN1−) deficient cells and animals; settings: cited from earlier work
# [7] = Complex formation with iron / crystallographic data; format: physicochemical
# shDMT1-Caco-2 monolayer = experiment: Iron transport in differentiated shDMT1(-Caco-2) monolayers; format: cell-based
# [8] = background; cited from earlier work
smiles,measurement,setting,value
CC(C)c1ccc(O)c(=O)cc1 [GT],"aggregation, previously shown",[1],less aggregation
same,"iron mobilization capacity / cell-free iron transport, effect of deuteration",[2],no deuteration effect on cell-free iron transport
Cc1cc(C)c(O)c(=O)c(C)c1 [Tri-Methyl],aggregation tendency,[3],aggregates less
"CCCCc1cccc(=O)c(O)c1 [4 nBu, 2-hydroxy-4-butylcyclohepta-2,4,6-trien-1-one]",aggregation tendency,[3],highly aggregating
same,concentration of compound at which noticeable transport ceases,"[2]; liposome efflux assay, due to higher order aggregation",40 µM
CC(C)c1cccc(=O)c(O)c1 [hinokitiol],restoration of iron homeostasis,[4],restores iron homeostasis
same,restoration of iron homeostasis,[5],restores iron homeostasis
same,aggregation tendency,[3],predisposed at higher concentrations to form higher-order aggregates; also recorded: formation of higher-order aggregates in aqueous media
same,aggregation tendency,[3]; listed as Hinokitiol,highly aggregative
same,restoration of iron homeostasis,[6],restores iron homeostasis
same,complex formation with Fe(III),[7],forms a 3:1 complex with Fe(III)
same,iron transport / mobilization,shDMT1-Caco-2 monolayer,"effectively mobilizes iron at low-to-intermediate concentrations; also recorded: at higher concentrations, a substantial decrease in transmembrane mobilizing activity was observed"
same,iron transport capability at higher concentrations,[2],begins to aggregate
same,complex formation with iron,[8],reversibly forming a 3:1 complex with iron
"[2H]C([2H])([2H])C([2H])([2H])C([2H])([2H])C([2H])([2H])c1cccc(=O)c(O)c1 [4 nBu-d9, 2-hydroxy-4-(butyl-d9)cyclohepta-2,4,6-trien-1-one]","iron mobilization capacity / cell-free iron transport, effect of deuteration",[2],maintains transport levels at concentrations when the parent compound suffers from limiting higher order aggregation
same,"iron mobilization capacity / cell-free iron transport, effect of deuteration",[2]; listed as 4-n-buytl-(d9)-tropolone,extends transport window
same,concentration of compound up to which noticeable transmembrane transport of iron is demonstrated,"[2]; liposome efflux assay, before dropping to baseline",75 µM
"[2H]C([2H])([2H])C([2H])(c1cccc(=O)c(O)c1)C([2H])([2H])[2H] [hinokitiol-d7, 2-hydroxy-4-(isopropyl-d7)-cyclohepta-2,4,6-trien-1-one]",aggregation by dynamic light scattering,"[3]; 20-100 μM with equimolar iron, pH 7.0, 37 °C",aggregates less via lesser photon deflection counts and particle size
same,iron transport capability at higher concentrations,[2],significantly greater iron transport capability at higher concentrations (50-150 μM) when compared to hinokitiol
